4 compounds from paper PMC2674329 (The Journal of steroid biochemistry and molecular biology, 2008) can be followed below.

What all share (format): biochemical
For test [1], the target named is T1, human placental cytosolic COMT (Homo sapiens, UniProt P21964).
T1 sequence (P21964 1-221 isoform P21964-2): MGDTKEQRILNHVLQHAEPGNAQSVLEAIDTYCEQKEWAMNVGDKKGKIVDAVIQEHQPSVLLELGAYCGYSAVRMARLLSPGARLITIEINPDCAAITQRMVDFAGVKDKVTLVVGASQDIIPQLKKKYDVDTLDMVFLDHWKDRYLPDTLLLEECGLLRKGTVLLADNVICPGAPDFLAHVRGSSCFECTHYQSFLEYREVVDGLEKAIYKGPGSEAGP
The following applies: for Km: read-out: KM of the substrate for O-methylation.

Test [2] has as its target T2, human liver cytosolic COMT (Homo sapiens, UniProt P21964).
T2 sequence (P21964 1-221 isoform P21964-2): T1 sequence (P21964 1-221 isoform P21964-2)

For test [3], the target named is T3, human liver and placental cytosolic COMT (Homo sapiens, UniProt P21964).
T3 sequence (P21964 1-221 isoform P21964-2): T1 sequence (P21964 1-221 isoform P21964-2)

[4] abbreviates: range over liver and placental samples (summary).

Each structure is given as a SMILES string. Read-outs that look alike come from different tables or passages of the source.

Regarding `O=C(O)/C=C/c1ccc(O)c(O)c1` [Caffeic acid, caffeic acid], the “VMAX, 4-OH-E2 as substrate, in presence of inhibitor” value in test [1] (HP17C + 2 μM inhibitor, no inhibitor: 1827) was 531 pmol/mg protein/min; in test [1] (HP17C + 0.5 inhibitor (unit of concentration not given), no inhibitor: 1827), 1572 pmol/mg protein/min. Further, the “VMAX, 2-OH-E2 as substrate, in presence of inhibitor” value in test [1] (HP17C + 0.5 inhibitor (unit of concentration not given), no inhibitor: 2274) stood at 2078 pmol/mg protein/min.

Usually Km stands for the substrate concentration at which the rate is half of its maximum. With `C[C@]12CC[C@@H]3c4ccc(O)c(O)c4CC[C@H]3[C@@H]1CC[C@@H]2O` [4-OH-E2, 4-hydroxyestradiol, reference compound], the “VMAX of the substrate for O-methylation” value in test [2] (HL1C (no inhibitor), experiment with 1 μM chlorogenic acid) turned out to be 6408 pmol/mg protein/min; in test [2] (HL1C (no inhibitor), experiment with 2 μM caffeic acid), 6401 pmol/mg protein/min; in test [2] (HL6C (no inhibitor)) it was 6310 pmol/mg protein/min; in test [1] (HP17C (no inhibitor)), 1827 pmol/mg protein/min; in test [1] (HP18C (no inhibitor)) it was 1918 pmol/mg protein/min; in test [1] (HP20C (no inhibitor)) it was 759 pmol/mg protein/min. Moreover, the Km is 7.1 µM in test [2] (read-out: KM of the substrate for O-methylation, HL6C (no inhibitor)); 3.2 µM in test [1] (HP17C (no inhibitor)); 4.2 µM in test [1] (HP18C (no inhibitor)); 3.5 µM in test [1] (HP20C (no inhibitor)).

With `C[C@]12CC[C@@H]3c4cc(O)c(O)cc4CC[C@H]3[C@@H]1CC[C@@H]2O` [2-OH-E2, 2-hydroxyestradiol, reference compound], the figures for the “VMAX of the substrate for O-methylation” value in test [1] (HP17C (no inhibitor)), in test [1] (HP18C (no inhibitor)) and in test [1] (HP20C (no inhibitor)) were 2274 pmol/mg protein/min, 4815 pmol/mg protein/min and 1650 pmol/mg protein/min, respectively. The Km in test [1] (HP17C (no inhibitor)) was found to be 1.3 µM; in test [1] (HP18C (no inhibitor)) it was 1 µM; in test [1] (HP20C (no inhibitor)), 0.7 µM.

For the compound `O=C(/C=C/c1ccc(O)c(O)c1)O[C@@H]1C[C@](O)(C(=O)O)C[C@@H](O)[C@H]1O` [Chlorogenic acid, chlorogenic acid], the “VMAX, 4-OH-E2 as substrate, in presence of inhibitor” value was 2825 pmol/mg protein/min in test [2] (HL1C + 1 μM inhibitor, no inhibitor: 6408); 3292 pmol/mg protein/min in test [2] (HL6C + 2 μM inhibitor, no inhibitor: 6310); 1480 pmol/mg protein/min in test [1] (HP18C + 0.25 μM inhibitor, no inhibitor: 1918); 1146 pmol/mg protein/min in test [1] (HP18C + 0.5 μM inhibitor, no inhibitor: 1918); 312 pmol/mg protein/min in test [1] (HP20C + 0.5 μM inhibitor, no inhibitor: 759). Further, the “change of apparent KM value, O-methylation of 4-OH-E2” value in test [2] (inhibitor at 1 μM) is listed as “slightly increased”. Moreover, the “decrease of apparent VMAX value, O-methylation of 4-OH-E2” value in test [2] (inhibitor at 1 μM) is “approximately 50%”. In addition, the “mechanism of enzyme inhibition, O-methylation of 4-OH-E2” value in test [2] (inhibitor at 1 μM) is on record as “primarily a noncompetitive mechanism”. Moreover, the “mechanism of inhibition, O-methylation of 2-OH-E2 and 4-OH-E2” value in test [3] (human liver and placental COMT) is “mixed (competitive plus noncompetitive)”. Besides, the “higher inhibition potency for the O-methylation of 4-OH-E2 than for the O-methylation of 2-OH-E2” value in test [3] (human liver or placental cytosolic COMT) is on record as 1.5 to 7 fold. For the same compound, in test [3] (setting [4]), the “IC50 values for inhibiting the methylation of 2-OH-E2” value lay in the range of 800 to 1400 nM. Moreover, the “IC50 values for inhibiting the methylation of 4-OH-E2” value in test [3] (setting [4]) lay within 200 to 800 nM. Besides, the “VMAX, 2-OH-E2 as substrate, in presence of inhibitor” value in test [1] (HP18C + 0.25 μM inhibitor, no inhibitor: 4815) is recorded as 3960 pmol/mg protein/min; in test [1] (HP18C + 0.5 μM inhibitor, no inhibitor: 4815), 3648 pmol/mg protein/min; in test [1] (HP20C + 0.5 μM inhibitor, no inhibitor: 1650), 1311 pmol/mg protein/min. For the same compound, the “increase of KM value, 2-OH-E2 as a substrate” value is “approximately 2 fold” in test [1] (inhibitor at 0.25 μM) and roughly 4 fold in test [1] (inhibitor at 0.5 μM). Also, the “increase of KM value, 4-OH-E2 as a substrate” value in test [1] (inhibitor at 0.25 μM) is “approximately 1.2 fold”; in test [1] (inhibitor at 0.5 μM) it was “approximately 2 fold”. Besides, the “decrease of VMAX value, 2-OH-E2 as a substrate” value in test [1] (inhibitor at 0.25 and 0.5 μM) is recorded as “approximately 20%”. In addition, the “decrease of VMAX value, 4-OH-E2 as a substrate” value in test [1] (inhibitor at 0.25 and 0.5 μM) is on record as “approximately 50%”. Moreover, the “mechanism of enzyme inhibition, O-methylation of 2-OH-E2 and 4-OH-E2” value in test [1] (section on human placental cytosolic COMT (sentence prints human liver COMT)) is recorded as “mixed (competitive plus noncompetitive)”.
